pIC50: −log10 of the molar value. Like-named read-outs stand apart in the source and are kept apart here.
Experiments:
Format in all cases: biochemical
PDE9A = PDE9A (Homo sapiens, UniProt O76083); assay: PDE9A inhibition, IMAP fluorescence polarization assay
PDE3A = PDE3A (Homo sapiens, UniProt Q14432); assay: PDE3A inhibition, IMAP fluorescence polarization assay; settings: for IC50: read-out: PDE3A inhibition IC50 μM, substrate cGMP
PDE10A = PDE10A (Homo sapiens, UniProt Q9Y233); assay: PDE10A inhibition, IMAP fluorescence polarization assay; settings: PDE10A inhibition IC50 μM
PDE3B = PDE3B (Homo sapiens, UniProt Q13370); assay: PDE3B inhibition, IMAP fluorescence polarization assay; settings: for IC50: read-out: PDE3B inhibition IC50 μM, substrate cGMP
PDE2A = PDE2A (Homo sapiens, UniProt O00408); assay: PDE2A inhibition, IMAP fluorescence polarization assay; settings: for IC50: read-out: PDE2A inhibition IC50 μM, substrate cGMP
PDE1A = PDE1A (Homo sapiens, UniProt P54750); assay: PDE1A inhibition, IMAP fluorescence polarization assay; settings: for IC50: read-out: PDE1A inhibition IC50 μM, substrate cGMP
human PDE5 = human PDE5 (Homo sapiens, UniProt O76074); assay: PDE5 inhibition, IMAP fluorescence polarization phosphodiesterase assay; settings: for inhibition at 10 µM: read-out: % PDE5 inhibition at 10 μM
PDE11A = PDE11A (Homo sapiens, UniProt Q9HCR9); assay: PDE11A inhibition, IMAP fluorescence polarization assay; settings: for IC50: PDE11A inhibition IC50 μM; for selectivity profile (selectivity index) PDE5 versus PDE11: cGMP as the substrate
PDE11A, sequence (Q9HCR9 whole entry): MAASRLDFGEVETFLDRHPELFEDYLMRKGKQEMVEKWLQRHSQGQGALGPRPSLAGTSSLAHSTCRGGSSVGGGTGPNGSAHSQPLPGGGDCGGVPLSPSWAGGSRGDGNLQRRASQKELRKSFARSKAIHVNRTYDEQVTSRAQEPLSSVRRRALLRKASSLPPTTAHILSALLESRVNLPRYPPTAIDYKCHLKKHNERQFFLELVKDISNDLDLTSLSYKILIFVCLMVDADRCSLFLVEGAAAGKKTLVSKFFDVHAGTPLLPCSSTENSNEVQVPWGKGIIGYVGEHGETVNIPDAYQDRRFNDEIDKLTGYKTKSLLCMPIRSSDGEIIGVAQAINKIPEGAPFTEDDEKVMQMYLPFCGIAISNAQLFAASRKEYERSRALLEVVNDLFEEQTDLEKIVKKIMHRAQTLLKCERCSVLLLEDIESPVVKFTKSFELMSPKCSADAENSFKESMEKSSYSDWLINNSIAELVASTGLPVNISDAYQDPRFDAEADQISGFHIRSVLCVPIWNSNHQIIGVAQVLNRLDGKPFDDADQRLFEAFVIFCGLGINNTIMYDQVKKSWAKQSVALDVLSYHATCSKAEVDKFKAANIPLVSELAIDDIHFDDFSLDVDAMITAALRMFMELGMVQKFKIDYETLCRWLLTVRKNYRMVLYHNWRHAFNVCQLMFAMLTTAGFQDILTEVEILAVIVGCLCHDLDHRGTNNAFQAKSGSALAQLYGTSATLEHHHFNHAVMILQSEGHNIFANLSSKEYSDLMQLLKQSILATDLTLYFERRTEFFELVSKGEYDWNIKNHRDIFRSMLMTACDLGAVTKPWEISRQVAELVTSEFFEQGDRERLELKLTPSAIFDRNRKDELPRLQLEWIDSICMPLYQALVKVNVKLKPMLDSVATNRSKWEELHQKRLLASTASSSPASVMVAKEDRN

PDE10A, sequence (Q9Y233 290-1055 limits assumed): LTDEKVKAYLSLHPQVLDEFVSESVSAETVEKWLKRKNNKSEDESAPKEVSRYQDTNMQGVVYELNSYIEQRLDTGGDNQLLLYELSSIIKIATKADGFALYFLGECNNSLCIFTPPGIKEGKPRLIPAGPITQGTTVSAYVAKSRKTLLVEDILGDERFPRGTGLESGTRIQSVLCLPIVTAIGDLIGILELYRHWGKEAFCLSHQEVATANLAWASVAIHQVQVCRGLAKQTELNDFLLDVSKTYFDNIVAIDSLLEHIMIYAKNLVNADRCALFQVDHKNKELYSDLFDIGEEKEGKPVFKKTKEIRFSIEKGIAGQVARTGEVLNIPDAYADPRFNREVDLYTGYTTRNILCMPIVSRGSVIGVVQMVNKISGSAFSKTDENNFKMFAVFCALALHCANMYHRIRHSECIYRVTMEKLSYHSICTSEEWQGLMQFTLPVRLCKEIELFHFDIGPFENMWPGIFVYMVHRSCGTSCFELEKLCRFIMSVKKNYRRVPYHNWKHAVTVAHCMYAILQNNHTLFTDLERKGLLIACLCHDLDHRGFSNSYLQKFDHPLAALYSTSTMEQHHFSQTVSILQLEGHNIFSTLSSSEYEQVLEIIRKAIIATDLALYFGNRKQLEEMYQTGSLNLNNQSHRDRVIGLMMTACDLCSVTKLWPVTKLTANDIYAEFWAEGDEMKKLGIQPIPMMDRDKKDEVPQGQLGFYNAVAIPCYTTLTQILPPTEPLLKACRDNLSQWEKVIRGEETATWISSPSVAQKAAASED
PDE9A, sequence (O76083 whole entry): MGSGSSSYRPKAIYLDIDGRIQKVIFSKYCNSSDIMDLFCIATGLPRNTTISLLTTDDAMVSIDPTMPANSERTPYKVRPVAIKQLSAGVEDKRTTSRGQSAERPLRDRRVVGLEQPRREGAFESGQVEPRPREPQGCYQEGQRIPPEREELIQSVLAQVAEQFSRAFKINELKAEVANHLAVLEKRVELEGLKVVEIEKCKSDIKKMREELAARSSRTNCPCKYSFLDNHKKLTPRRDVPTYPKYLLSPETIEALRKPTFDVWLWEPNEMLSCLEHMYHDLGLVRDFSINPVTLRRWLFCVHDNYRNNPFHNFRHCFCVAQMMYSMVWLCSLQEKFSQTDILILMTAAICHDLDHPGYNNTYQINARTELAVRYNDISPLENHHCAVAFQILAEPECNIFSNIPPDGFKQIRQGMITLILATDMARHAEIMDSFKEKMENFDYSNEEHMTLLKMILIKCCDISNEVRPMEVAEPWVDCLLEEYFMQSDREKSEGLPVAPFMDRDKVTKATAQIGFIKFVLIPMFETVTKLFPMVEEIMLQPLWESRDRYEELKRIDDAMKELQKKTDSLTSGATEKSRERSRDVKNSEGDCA
PDE3B, sequence (Q13370 whole entry): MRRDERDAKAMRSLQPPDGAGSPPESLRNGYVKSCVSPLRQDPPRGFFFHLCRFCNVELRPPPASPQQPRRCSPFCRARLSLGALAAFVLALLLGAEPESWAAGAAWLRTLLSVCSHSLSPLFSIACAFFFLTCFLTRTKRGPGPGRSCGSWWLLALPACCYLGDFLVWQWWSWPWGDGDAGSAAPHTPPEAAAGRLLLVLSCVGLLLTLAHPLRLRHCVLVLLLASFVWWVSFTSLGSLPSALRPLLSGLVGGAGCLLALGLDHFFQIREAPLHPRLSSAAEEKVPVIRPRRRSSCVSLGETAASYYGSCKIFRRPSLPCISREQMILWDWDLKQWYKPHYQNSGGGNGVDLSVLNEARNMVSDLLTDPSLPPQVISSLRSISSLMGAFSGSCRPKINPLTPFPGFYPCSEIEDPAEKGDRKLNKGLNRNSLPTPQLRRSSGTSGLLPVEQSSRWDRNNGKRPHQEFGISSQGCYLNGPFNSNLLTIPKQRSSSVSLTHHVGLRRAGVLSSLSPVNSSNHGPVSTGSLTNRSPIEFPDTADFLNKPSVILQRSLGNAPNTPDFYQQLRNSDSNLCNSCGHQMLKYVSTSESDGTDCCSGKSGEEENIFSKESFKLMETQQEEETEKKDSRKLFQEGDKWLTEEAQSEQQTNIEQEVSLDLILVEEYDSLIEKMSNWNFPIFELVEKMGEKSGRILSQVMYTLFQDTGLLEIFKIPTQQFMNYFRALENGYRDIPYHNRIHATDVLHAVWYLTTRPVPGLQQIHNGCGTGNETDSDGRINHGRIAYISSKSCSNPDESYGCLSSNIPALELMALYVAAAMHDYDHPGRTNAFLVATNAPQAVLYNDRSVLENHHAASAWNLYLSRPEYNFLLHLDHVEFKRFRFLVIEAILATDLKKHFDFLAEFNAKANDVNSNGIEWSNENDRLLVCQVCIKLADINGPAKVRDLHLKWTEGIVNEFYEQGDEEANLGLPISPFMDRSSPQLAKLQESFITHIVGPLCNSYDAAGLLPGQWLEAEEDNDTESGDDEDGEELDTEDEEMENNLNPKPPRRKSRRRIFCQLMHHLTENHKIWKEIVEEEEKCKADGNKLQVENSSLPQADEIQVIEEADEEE
PDE2A, sequence (O00408 whole entry): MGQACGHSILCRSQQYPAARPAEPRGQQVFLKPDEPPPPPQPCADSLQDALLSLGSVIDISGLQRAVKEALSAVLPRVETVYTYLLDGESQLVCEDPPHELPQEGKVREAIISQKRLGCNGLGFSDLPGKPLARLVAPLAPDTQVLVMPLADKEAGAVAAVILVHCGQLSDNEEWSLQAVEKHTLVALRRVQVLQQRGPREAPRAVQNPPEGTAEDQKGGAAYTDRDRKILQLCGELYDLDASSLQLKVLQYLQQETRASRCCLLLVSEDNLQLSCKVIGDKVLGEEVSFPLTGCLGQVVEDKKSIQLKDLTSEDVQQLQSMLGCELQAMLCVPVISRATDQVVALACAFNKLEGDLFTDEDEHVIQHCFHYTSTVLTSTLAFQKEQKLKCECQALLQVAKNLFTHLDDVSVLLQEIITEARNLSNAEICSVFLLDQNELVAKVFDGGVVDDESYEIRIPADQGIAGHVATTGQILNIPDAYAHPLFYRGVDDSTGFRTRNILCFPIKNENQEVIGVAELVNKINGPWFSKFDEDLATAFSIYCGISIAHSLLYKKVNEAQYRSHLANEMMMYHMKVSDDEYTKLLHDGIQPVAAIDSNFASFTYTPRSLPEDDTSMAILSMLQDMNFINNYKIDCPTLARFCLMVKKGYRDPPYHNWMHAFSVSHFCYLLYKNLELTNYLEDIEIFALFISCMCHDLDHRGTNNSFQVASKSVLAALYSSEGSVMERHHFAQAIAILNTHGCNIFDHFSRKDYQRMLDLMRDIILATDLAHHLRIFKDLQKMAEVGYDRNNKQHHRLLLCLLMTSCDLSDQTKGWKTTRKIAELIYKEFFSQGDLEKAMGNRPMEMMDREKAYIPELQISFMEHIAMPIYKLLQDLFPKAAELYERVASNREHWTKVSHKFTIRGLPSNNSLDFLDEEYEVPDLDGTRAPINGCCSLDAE
PDE1A, sequence (P54750 whole entry): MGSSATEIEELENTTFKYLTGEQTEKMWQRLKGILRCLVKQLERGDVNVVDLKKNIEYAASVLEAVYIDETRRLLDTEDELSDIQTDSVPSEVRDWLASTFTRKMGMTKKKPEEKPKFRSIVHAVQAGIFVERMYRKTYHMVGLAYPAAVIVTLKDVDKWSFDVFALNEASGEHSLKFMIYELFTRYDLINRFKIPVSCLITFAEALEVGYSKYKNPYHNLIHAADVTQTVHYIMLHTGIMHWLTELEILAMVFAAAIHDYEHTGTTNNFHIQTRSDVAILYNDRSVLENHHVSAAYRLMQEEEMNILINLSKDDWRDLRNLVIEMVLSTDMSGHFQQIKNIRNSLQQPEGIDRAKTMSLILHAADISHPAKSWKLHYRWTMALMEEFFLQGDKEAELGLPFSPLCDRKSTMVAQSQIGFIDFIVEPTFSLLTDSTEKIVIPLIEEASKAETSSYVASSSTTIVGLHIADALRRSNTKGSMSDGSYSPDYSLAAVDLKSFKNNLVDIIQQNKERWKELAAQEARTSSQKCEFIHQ

SMILES	pIC50 (PDE9A)	pIC50 (PDE3A)	IC50 (PDE3A)	IC50 (PDE10A; substrate cAMP)	IC50 (PDE10A; substrate cGMP)	pIC50 (PDE3B)	IC50 (PDE3B)	pIC50 (PDE2A)	IC50 (PDE2A)	pIC50 (PDE1A)	IC50 (PDE1A)	pIC50 (human PDE5)	inhibition at 10 µM (human PDE5)	IC50 (PDE11A; substrate cAMP)	IC50 (PDE11A; substrate cGMP)	selectivity profile (selectivity index) PDE5 versus PDE11 (PDE11A)	times improved activity compared to five member congener 5 (human PDE5; PDE5 IC50, 29 versus 5)
CCN1C(=O)[C@@H]2Cc3c([nH]c4ccccc34)[C@@H](c3ccc(Br)cc3)N2C1=O [Compound 8, (5R,11aS)-5-(4-Bromophenyl)-2-ethyl-5,6,11,11a-tetrahydro-1H-imidazo[1′,5′:1,6]pyrido[3,4-b]indole-1,3(2H)-dione]	< 4.30	< 4.30	> 50 µM	> 50 µM	> 50 µM	< 4.30	> 50 µM	< 4.30	> 50 µM	< 4.30	> 50 µM	7.29	101%	44 µM	35.7 µM	700	
CN1CC(=O)N2[C@H](c3ccc(Br)cc3)c3[nH]c4ccccc4c3C[C@@H]2C1=O [Compound 25, (6R,12aR)-6-(4-Bromophenyl)-2-methyl-2,3,6,7,12,12a-hexahydropyrazino [1′,2′:1,6]pyrido[3,4-b]indole-1,4-dione]	< 4.30	< 4.30	> 50 µM	> 50 µM	41.7 µM	< 4.30	> 50 µM	< 4.30	> 50 µM	< 4.30	> 50 µM	7.72	98%	0.6 µM	0.27 µM	14	
CN1CC(=O)N2[C@H](c3ccc(Br)cc3)c3[nH]c4ccccc4c3C[C@H]2C1=O [Compound 28, (6R,12aS)-6-(4-Bromophenyl)-2-methyl-2,3,6,7,12,12a-hexahydropyrazino [1′,2′:1,6]pyrido[3,4-b]indole-1,4-dione]	< 4.30	< 4.30	> 50 µM	> 50 µM	> 50 µM	< 4.30	> 50 µM	< 4.30	> 50 µM	< 4.30	> 50 µM	7.92	91%	1.3 µM	1.13 µM	94	
CCN1CC(=O)N2[C@H](c3ccc(Br)cc3)c3[nH]c4ccccc4c3C[C@@H]2C1=O [Compound 29, (6R,12aR)-2-Ethyl-6-(4-bromophenyl)-2,3,6,7,12,12a-hexahydropyrazino [1′,2′:1,6]pyrido[3,4-b]indole-1,4-dione]	< 4.30	< 4.30	> 50 µM	26.1 µM	14.7 µM	< 4.30	> 50 µM	< 4.30	> 50 µM	< 4.30	> 50 µM	8.52	96%	0.3 µM	0.27 µM	90	1000 times
CC(C)(C)N1CC(=O)N2[C@@H](c3ccc(Br)cc3)c3[nH]c4ccccc4c3C[C@H]2C1=O [Compound 39, (6S,12aS)-6-(4-Bromophenyl)-2-tert-butyl-2,3,6,7,12,12a-hexahydropyrazino[1′,2′:1,6]pyrido[3,4-b]indole-1,4-dione]													12%				
CC(C)(C)N1CC(=O)N2[C@H](c3ccc(Br)cc3)c3[nH]c4ccccc4c3C[C@H]2C1=O [Compound 40, (6R,12aS)-6-(4-Bromophenyl)-2-tert-butyl-2,3,6,7,12,12a-hexahydropyrazino[1′,2′:1,6]pyrido[3,4-b]indole-1,4-dione]													21%				

From PMC4994520 (European journal of medicinal chemistry, 2012)
